Measured values as given in patent US20250345468A1, “COMBINATION TREATMENT OF SMALL-CELL LUNG CANCER” (ITM ISOTOPE TECHNOLOGIES MUNICH SE, priority 2022, published 2025).

Experiments:
H69 SCLC cells = test: Tumor growth delay and survival, H69 xenograft mouse model; conditions: PARP inhibitor alone
Experimental: H446 (FIG. 5) or H69 (FIG. 6) SCLC cells were subcutaneously inoculated in athymic nude mice to establish xenograft mouse models (injection of about 2 mio. cells in 200 μl Medium/Matrigel (1:1). Tumor volume and body weight were monitored daily during the study period. The differences of the initial tumor volume and the body weight of the mice of each treatment arm were negligible. The animals were treated with either PARP inhibitor alone or ^177Lu-DOTATOC alone, or with a combination of PARP inhibitor and of ^177Lu-DOTATOC. The onset of the treatment was at day 19 (H446 model) or at day 11 (H69 model) (administration of the PARP inhibitor), respectively. These groups were compared to an untreated control group. While the radiopharmaceutical was administered to the animals only once, the animals were treated with PARP inhibitor in two cycles of five days each (10 mg/kg in 200 μl PBS i.p.) at days 19 to 23 and 26 to 30 or at days 11 to 15 and 18 to 22, respectively. The treatment was interrupted for two days after the end of the first PARP inhibitor treatment cycle. ^177Lu-DOTATOC (40 MBq, 223 MBq/nmol) was administered in the middle of the first PARP inhibitor treatment cycle (at day 21 or at day 13, respectively). Study endpoint was a tumor size exceeding 15 mm in each dimension.

H69 cells = test: Cell viability (IC50) assay in H69 SCLC cells; type: cell-based, human
Description: FIG. 3A: Determination of the IC50 values of Rucaparib in the H446 and H69 cell lines. FIG. 3B: H446, FIG. 3C: H69 cell lines. Cell viability was studied upon combined cell treatment with Olaparib and ^177Lu-DOTA-TOC vs. ^177Lu-DOTA-TOC alone.
(§1) FIG. 1A). […] At such concentrations, neither Rucaparib nor ^177Lu-DOTATOC, respectively, alone have any major impact on cell viability. The activity required for ^177Lu-DOTATOC to reduce cell viability to 50% by H446 cells in the combination treatment was reduced by a factor of 10 (5 μM Rucaparib) to 22 (20 μM Rucaparib).
(§2) Further evidence for such a synergistic effect was collected by analogous viability assays employing other PARP inhibitors, such as Olaparib and Talazoparib, in combination with ^177Lu-DOTATOC. The applied PARP inhibitor concentrations for combination therapy was adjusted depending on their individual cytotoxicity. […] That finding was proven in all cell lines.

H446 cells = test: Cell viability (IC50) assay in H446 SCLC cells; type: cell-based, human
Experimental: FIG. 1A: H446 and H69 cells treated with increasing concentrations of Rucaparib. […] (IC50 values: ^177Lu-DOTA-TOC: 8.9 kBq, ^177Lu-DOTATOC and 5 μM Rucaparib: 0.9 kBq, ^177LU-DOTATOC and 20 μM Rucaparib; 0.4 kBq)
as §1, §2

PARP = conditions: cited from earlier work
[1] = tested on: SSTR2 expressing H69 cells; test: in vivo; parameters: species or system athymic nude mice; conditions: mouse
Experimental: (§3) H446 and H69 as SSTR2 expressing SCLC cell lines were subcutaneously inoculated into mice to establish a mouse xenograft model. The results were obtained from PET scans. […] By control experiments, the tumors were blocked with non-radioactive (non-labelled) DOTATOC (octreotide) for comparative reasons (“w/Block”).
(§4) Tumor accumulation of ^68Ga-DOTATOC (10 MBq) was evaluated in SCLC xenograft mouse model by subcutaneous inoculation of 2-3 mio SSTR2 expressing H446 and H69 cells, respectively, into athymic nude mice. The results (obtained from PET scans) shown in FIG. 8 reveal a visible uptake of ^68Ga-DOTATOC in the tumor after 4 hours p.i.

SSTR2 [2] = test: in vivo; parameters: species or system athymic nude mice; conditions: athymic nude, mouse, 10 MBq
Experimental: as §3, §4

SSTR2 [3] = test: in vivo; parameters: species or system athymic nude mice; conditions: athymic nude, mouse, 10 MBq; remark: listed apart in the source
Experimental: as §3, §4

## O=C(c1cc(Cc2n[nH]c(=O)c3ccccc23)ccc1F)N1CCN(C(=O)C2CC2)CC1 [Olaparib]
H69 SCLC cells
  Anti-cancer effect of single therapy: did not result in major anti-cancer effects

## CNCc1ccc(-c2[nH]c3cc(F)cc4c3c2CCNC4=O)cc1 [Rucaparib]
H69 SCLC cells
  Anti-cancer effect of single therapy: did not result in major anti-cancer effects
H69 cells; 20 μM Rucaparib alone
  Cell viability: slightly reduced
H69 cells; Homo sapiens, NCI-H69, Rucaparib alone
  IC50: 36 µM
H446 cells; 20 μM Rucaparib alone
  Cell viability: slightly reduced
H446 cells; Homo sapiens, NCI-H446, Rucaparib alone
  IC50: 32 µM

## Cn1ncnc1[C@H]1c2n[nH]c(=O)c3cc(F)cc(c23)N[C@@H]1c1ccc(F)cc1 [Talazoparib]
PARP
  Potency relative to olaparib: about 100 times

## C[C@@H](O)[C@@H]1NC(=O)[C@H](CCCCN)NC(=O)[C@@H](Cc2c[nH]c3ccccc23)NC(=O)[C@H](Cc2ccc(O)cc2)NC(=O)[C@@H](NC(=O)[C@@H](Cc2ccccc2)NC(=O)CN2CCN(CC(=O)O)CCN(CC(=O)O)CCN(CC(=O)O)CC2)CSSC[C@@H](C(=O)N[C@H](CO)[C@@H](C)O)NC1=O [^68Ga-DOTATOC, ^68Ga-DOTA-D-Phe-cyclo(Cys-Tyr-D-Trp-Lys-Thr-Cys)Thr(ol), metal not drawn]
[1]
  Uptake in H69 cells relative to H446 cells: ~2 fold
SSTR2 [2]
  tissue uptake at 4 h: 1 to 3 %ID/g
SSTR2 [3]
  tissue uptake at 4 h: 1 to 3 %ID/g
